US4778801A, “Isoindolinone derivatives, production and use thereof” (Takeda Chemical Industries, Ltd., priority 1984, dated 1988)

Legend:
[1] = biological target: benzodiazepine receptors; assay: specific binding to benzodiazepine receptors, [3H]-diazepam displacement; details: [3H]diazepam 2 nM, pH 7.4, 4° C., 20 minutes
Method: The compounds (I) according to the invention were tested for their affinity for benzodiazepine receptors using radioactive [^3 H]-diazepam.
The assay for specific binding to benzodiazepine receptors was performed according to the method described in the literature (Nature, 266, 732 (1977); European J. Pharmacol., 48, 263 (1978)). Thus, a crude mitochondrial fraction obtained from the cerebral cortex of SD strain male rats aged 9 to 10 weeks was suspended in 50 mM Tris-HCl buffer (pH 7.4), followed by addition of the test drug at several concentration levels and of [^3 H]diazepam (final concentration 2 nM). Each suspension was incubated at 4° C. for 20 minutes and then filtered through a Whatman GF/B glassfiber filter, and the radioactivity of [^3 H]diazepam on the filter was measured with a liquid scintillation counter. In this manner, the IC50 value, namely the concentration of the test drug at which the [^3 H]diazepam binding was inhibited by 50%, was determined.

[2] = system: rats; assay: muscle relaxant activity, rotating rod; type: in vivo; details: Rattus norvegicus, 1 min, 50% of rats fall off within 1 minute
Method: Groups of 6 rats were used. The rats were placed on a rotating rod with a diameter of 3.5 cm. The rod rotated with a speed of 8 revolutions per minute. […] The dose, ED50, of the test compound as required to make 50% of the rats fall off the rod was calculated [J. Am. Pharmaceutical Association, 46, 208 (1957)].

[3] = system: male rat (SD/JCL); assay: antianxiety activity, anticonflict test (Vogel et al.); type: in vivo; details: po; orally administered, male rat, 30, 60 or 180 minutes after administration; read-out: Antianxiety activity MED
Method: The antianxiety activity measurement was performed in accordance with Vogel et al. [Psychopharmacologia, 21, 1 (1970)] as follows: An apparatus comprising a large clear box with a stainless steel grid floor and a smaller opaque dark box provided with a drinking tube was arranged such that a rat placed therein could receive, on the sole, electric shocks through the grid floor following each twentieth lick. The test compound was orally administered to each male rat (SD/JCL) deprived of water for 48 hours prior to the test, which rat was then, 30, 60 or 180 minutes after administration, placed in the apparatus mentioned above and the number of licks was recorded over 3 minutes. The increase in the number of licks as compared with a physiological saline group was determined and taken as a measure of antianxiety potency, and the minimum effective dose determined accordingly.

[4] = system: mice; assay: sleep-inducing activity, potentiation of pentobarbital sleep; type: in vivo; details: Mus musculus, oral, 30 minutes before pentobarbital 25 mg/kg i.p.
Method: Mice, in groups of eight, were orally administered the test compound and, 30 minutes later, intraperitoneally administered 25 mg/kg of pentobarbital. The loss of righting reflex which lasted for 2 minutes or longer during the 30-minute period following pentobarbital administration was taken as an indication of sleep potentiation. The dose, ED50, of the test compound as required to achieve sleep potentiation in 50% of mice was calculated.

SMILES: COc1ccc(N2C(=O)c3ccc([N+](=O)[O-])cc3C2CC(=O)N2CCC3(CC2)OCCO3)cc1 (centres unmarked)
- IC50 [1]: 21.9 nM

SMILES: CC1(C)COC2(CCN(C(=O)CC3c4ccccc4C(=O)N3c3ccc4ccc(Cl)nc4n3)CC2)OC1 (centres unmarked)
- IC50 [1]: 2.4 nM

SMILES: O=C1CCN(C(=O)CC2c3ccccc3C(=O)N2c2ccc3ccc(Cl)nc3n2)CC1 (centres unmarked) [drawing 16]
- IC50 [1]: 0.537 nM

SMILES: CCC(=O)OC1CCN(C(=O)CC2c3ccccc3C(=O)N2c2ccc3ccc(Cl)nc3n2)CC1 (centres unmarked)
- IC50 [1]: 1 nM

SMILES: O=C(CC1c2ccccc2C(=O)N1c1ccc2ccc(Cl)nc2n1)N1CCC(O)CC1 (centres unmarked) [drawing 41]
- ED50 [2]: > 80 mg/kg
- minimal effective dose [3]: > 30 mg/kg
- ED50 [4]: 40.2 mg/kg

SMILES: O=C(CC1c2ccccc2C(=O)N1c1ccc2ccc(Cl)nc2n1)N1CCC2(CC1)OCCO2 (centres unmarked) [drawing 36]
- ED50 [2]: > 80 mg/kg
- minimal effective dose [3]: 5 mg/kg
- ED50 [4]: > 50 mg/kg

SMILES: O=C(CC1c2ccccc2C(=O)N1c1ccc2ccc(Cl)nc2n1)N1CCC(O)CC1 (centres unmarked) [drawing 34]
- IC50 [1]: 0.794 nM

SMILES: COc1ccc(N2C(=O)c3ccc([N+](=O)[O-])cc3C2CC(=O)N2CCC(=NO)CC2)cc1 (centres unmarked)
- IC50 [1]: 7.94 nM

SMILES: COc1ccc(N2C(=O)c3ccc(Cl)cc3C2CC(=O)N2CCC(=NO)CC2)cc1 (centres unmarked)
- IC50 [1]: 3.47 nM

SMILES: O=C(CC1c2ccccc2C(=O)N1c1ccc2ccc(Cl)nc2n1)N1CCC2(CC1)SCCS2 (centres unmarked)
- IC50 [1]: 1.23 nM

SMILES: COc1ccc(N2C(=O)c3ccc(Cl)cc3C2CC(=O)N2CCC3(CC2)OCCO3)cc1 (centres unmarked)
- IC50 [1]: 8.71 nM

SMILES: COC1(OC)CCN(C(=O)CC2c3ccccc3C(=O)N2c2ccc3ccc(Cl)nc3n2)CC1 (centres unmarked) [drawing 19]
- IC50 [1]: 1.29 nM

SMILES: COc1ccc(N2C(=O)c3ccc(Cl)cc3C2CC(=O)N2CCC(=O)CC2)cc1 (centres unmarked)
- IC50 [1]: 2.4 nM

SMILES: CC(=O)OC1CCN(C(=O)CC2c3ccccc3C(=O)N2c2ccc3ccc(Cl)nc3n2)CC1 (centres unmarked)
- IC50 [1]: 0.501 nM

SMILES: O=C(CC1c2ccccc2C(=O)N1c1ccc2ccc(Cl)nc2n1)N1CCC(=NO)CC1 (centres unmarked)
- IC50 [1]: 0.645 nM

SMILES: COc1ccc(N2C(=O)c3ccc([N+](=O)[O-])cc3C2CC(=O)N2CCC(=O)CC2)cc1 (centres unmarked)
- IC50 [1]: 6.16 nM

SMILES: COC1(OC)CCN(C(=O)CC2c3ccccc3C(=O)N2c2ccc3ccc(Cl)nc3n2)CC1 (centres unmarked) [drawing 39]
- ED50 [2]: > 40 mg/kg
- minimal effective dose [3]: < 20 mg/kg
- ED50 [4]: ~50 mg/kg

SMILES: O=C(CC1c2ccccc2C(=O)N1c1ccc2ccc(Cl)nc2n1)N1CCC2(CC1)OCCO2 (centres unmarked) [drawing 17]
- IC50 [1]: 0.38 nM

SMILES: O=C1CCN(C(=O)CC2c3ccccc3C(=O)N2c2ccc3ccc(Cl)nc3n2)CC1 (centres unmarked) [drawing 38]
- ED50 [2]: > 80 mg/kg
- minimal effective dose [3]: 20 mg/kg
- ED50 [4]: 24.3 mg/kg

SMILES: O=C(CC1c2ccccc2C(=O)N1c1ccc2ccc(Cl)nc2n1)N1CCC2(CC1)OCCCO2 (centres unmarked)
- IC50 [1]: 4.9 nM

SMILES: O=C(CC1c2ccccc2C(=O)N1c1ccc2ccc(Cl)nc2n1)N1CCC2(CC1)SCCCS2 (centres unmarked)
- IC50 [1]: 0.562 nM
